{"source": "ChEMBL document CHEMBL4387758", "about": "“Discovery and Biological evaluation of pyrimido[4,5-d]pyrimidine-2,4(1H,3H)-dione derivatives as potent Bruton's tyrosine kinase inhibitors” (Bioorg Med Chem, 2019)", "key": {"[1]": {"molecular_target": "T1, Tyrosine-protein kinase BTK (Homo sapiens, UniProt Q06187)", "T1 sequence (Q06187 whole entry)": "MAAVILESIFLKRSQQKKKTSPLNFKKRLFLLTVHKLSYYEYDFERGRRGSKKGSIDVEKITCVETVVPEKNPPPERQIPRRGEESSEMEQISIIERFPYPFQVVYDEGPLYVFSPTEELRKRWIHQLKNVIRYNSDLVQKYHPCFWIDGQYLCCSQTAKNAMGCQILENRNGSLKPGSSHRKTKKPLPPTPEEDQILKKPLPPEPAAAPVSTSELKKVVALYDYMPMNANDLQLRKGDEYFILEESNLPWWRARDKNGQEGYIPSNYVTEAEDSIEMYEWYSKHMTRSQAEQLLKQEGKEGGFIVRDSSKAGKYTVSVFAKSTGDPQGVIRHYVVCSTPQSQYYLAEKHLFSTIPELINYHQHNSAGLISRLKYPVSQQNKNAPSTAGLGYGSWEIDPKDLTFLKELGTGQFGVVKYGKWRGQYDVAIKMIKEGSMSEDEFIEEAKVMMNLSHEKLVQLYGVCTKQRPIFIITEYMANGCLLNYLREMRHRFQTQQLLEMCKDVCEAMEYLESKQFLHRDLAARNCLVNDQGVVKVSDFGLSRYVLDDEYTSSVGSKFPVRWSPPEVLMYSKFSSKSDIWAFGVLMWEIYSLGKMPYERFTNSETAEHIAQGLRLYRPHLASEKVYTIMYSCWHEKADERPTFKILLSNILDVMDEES", "experiment": "Inhibition of BTK (unknown origin) by ELISA"}, "[2]": {"molecular_target": "T1, Tyrosine-protein kinase BTK", "experiment": "Inhibition of BTK phosphorylation at Tyr223 residue in human TMD8 cells at 0.1 to 1000 nM by Western blot analysis", "type": "cell-based"}, "TMD8 [3]": {"test_system": "TMD8", "experiment": "Antiproliferative activity against human TMD8 cells assessed as reduction in cell viability incubated for 72 hrs by CCK-8 assay", "type": "functional, cell-based", "conditions": "TMD8, 72 h"}, "TMD8 [4]": {"test_system": "TMD8", "experiment": "Cell cycle arrest in BTK-dependent human TMD8 cells assessed as accumulation of cells in G1 phase at 1 uM incubated for 72 hrs by propidium iodide staining based flow cytometry", "type": "functional"}, "Ramos": {"test_system": "Ramos", "experiment": "cells", "conditions": "Homo sapiens, 72 h", "description": "Antiproliferative activity against human Ramos cells assessed as reduction in cell viability incubated for 72 hrs by CCK-8 assay"}, "Homo sapiens": {"species": "Homo sapiens", "experiment": "Selectivity ratio of IC50 for inhibition of EGFR (unknown origin) to IC50 for inhibition of BTK (unknown origin)"}}, "note": "pIC50: −log10 of the molar value.", "data": [{"smiles": "C=CC(=O)Nc1cccc(-n2c(=O)n(C)c(=O)c3cnc(Nc4ccc(N5CCOCC5)cc4OC)nc32)c1", "values": [{"measurement": "pIC50", "setting": "[1]", "value": 6.07}]}, {"smiles": "C=CC(=O)Nc1cccc(-n2c(=O)n(C(C)C)c(=O)c3cnc(Nc4ccc(N5CCN(C)CC5)c(C)c4)nc32)c1", "values": [{"measurement": "inhibition", "setting": "[2]", "value": "Dose-dependent effect"}, {"measurement": "pIC50", "setting": "TMD8 [3]", "value": 6.14}, {"measurement": "pIC50", "setting": "[1]", "value": 9.10}, {"measurement": "Activity", "setting": "TMD8 [4]", "value": 75.2, "unit": "%"}, {"measurement": "pIC50", "setting": "Ramos", "value": 5.04}]}, {"smiles": "C=CC(=O)Nc1cccc(-n2c(=O)n(C)c(=O)c3cnc(Nc4ccc(N5CCSCC5)cc4OC)nc32)c1", "values": [{"measurement": "pIC50", "setting": "[1]", "value": 6.09}]}, {"smiles": "C=CC(=O)Nc1cccc(-n2c(=O)n(C(C)C)c(=O)c3cnc(Nc4ccc(N5CCC(N(C)C)CC5)cc4OC)nc32)c1", "values": [{"measurement": "pIC50", "setting": "[1]", "value": 6.44}]}, {"smiles": "C=CC(=O)Nc1cccc(-n2c(=O)n(Cc3ccccc3)c(=O)c3cnc(Nc4ccc(N5CCC(N(C)C)CC5)cc4OC)nc32)c1", "values": [{"measurement": "pIC50", "setting": "[1]", "value": 6.61}, {"measurement": "Ratio IC50", "setting": "Homo sapiens", "value": 206}]}, {"smiles": "C=CC(=O)Nc1cccc(-n2c(=O)n(C(C)C)c(=O)c3cnc(Nc4ccc(N5CCN(C)CC5)c(OC)c4)nc32)c1", "values": [{"measurement": "inhibition", "setting": "[2]", "value": "Dose-dependent effect"}, {"measurement": "pIC50", "setting": "TMD8 [3]", "value": 6.09}, {"measurement": "pIC50", "setting": "[1]", "value": 8.92}, {"measurement": "Activity", "setting": "TMD8 [4]", "value": 75.4, "unit": "%"}, {"measurement": "pIC50", "setting": "Ramos", "value": 5.02}]}, {"smiles": "C=CC(=O)Nc1cccc(-n2c(=O)n(C(C)C)c(=O)c3cnc(Nc4ccc(OCCN(C)C)cc4OC)nc32)c1", "values": [{"measurement": "pIC50", "setting": "[1]", "value": 6.46}]}, {"smiles": "C=CC(=O)Nc1cccc(-n2c(=O)n(C)c(=O)c3cnc(Nc4ccccc4OC)nc32)c1", "values": [{"measurement": "pIC50", "setting": "[1]", "value": 6.00}]}, {"smiles": "C=CC(=O)Nc1cccc(-n2c(=O)n(C)c(=O)c3cnc(Nc4ccc(N5CCN(C(C)=O)CC5)cc4OC)nc32)c1", "values": [{"measurement": "pIC50", "setting": "[1]", "value": 6.14}]}, {"smiles": "C=CC(=O)Nc1cccc(-n2c(=O)n(CCCc3ccccc3)c(=O)c3cnc(Nc4ccc(N5CCC(N(C)C)CC5)cc4OC)nc32)c1", "values": [{"measurement": "pIC50", "setting": "[1]", "value": 7.12}]}, {"smiles": "C=CC(=O)Nc1cccc(-n2c(=O)n(CC)c(=O)c3cnc(Nc4ccc(N5CCC(N(C)C)CC5)cc4OC)nc32)c1", "values": [{"measurement": "pIC50", "setting": "[1]", "value": 6.40}]}, {"smiles": "C=CC(=O)Nc1cccc(-n2c(=O)n(C)c(=O)c3cnc(Nc4ccc(N5CCC(N(C)C)CC5)cc4OC)nc32)c1", "values": [{"measurement": "pIC50", "setting": "[1]", "value": 6.44}]}, {"smiles": "C=CC(=O)Nc1cccc(-n2c(=O)n(C(C)C)c(=O)c3cnc(Nc4ccc(N(C)CCN(C)C)cc4OC)nc32)c1", "values": [{"measurement": "pIC50", "setting": "[1]", "value": 6.01}]}, {"smiles": "C=CC(=O)Nc1cccc(-n2c(=O)n(C(C)C)c(=O)c3cnc(Nc4ccc(N5CCC(N6CCN(C)CC6)CC5)cc4OC)nc32)c1", "values": [{"measurement": "pIC50", "setting": "[1]", "value": 6.84}]}, {"smiles": "C=CC(=O)Nc1cccc(-n2c(=O)n(C(C)C)c(=O)c3cnc(Nc4ccc(N5CCN(C)CC5)cc4OC)nc32)c1", "values": [{"measurement": "pIC50", "setting": "[1]", "value": 6.29}]}, {"smiles": "C=CC(=O)Nc1cccc(-n2c(=O)n(CCC)c(=O)c3cnc(Nc4ccc(N5CCC(N(C)C)CC5)cc4OC)nc32)c1", "values": [{"measurement": "pIC50", "setting": "[1]", "value": 7.52}]}, {"smiles": "C=CC(=O)Nc1cccc(-n2c(=O)n(CCc3ccccc3)c(=O)c3cnc(Nc4ccc(N5CCC(N(C)C)CC5)cc4OC)nc32)c1", "values": [{"measurement": "pIC50", "setting": "[1]", "value": 7.64}]}, {"smiles": "C=CC(=O)Nc1cccc(-n2c(=O)n(C)c(=O)c3cnc(Nc4ccccc4)nc32)c1", "values": [{"measurement": "pIC50", "setting": "[1]", "value": 8.21}]}]}
